According to US9232799B2, “N-[(het)arylethyl)] pyrazole(thio)carboxamides and their heterosubstituted analogues” (BAYER INTELLECTUAL PROPERTY GMBH, priority 2010, dated 2016):

Columns and labels:
Sphaerotheca fuliginea = assay: In vivo preventive test on Sphaerotheca fuliginea (cucumber); settings: 500 ppm of active ingredient, evaluated 7 days after inoculation
Text: One day after this treatment, the plants are inoculated with an aqueous spore suspension of Sphaerotheca fuliginea.

[1] = logP by HPLC on reversed-phase column (C 18), EEC Directive 79/831 Annex V.A8; format: physicochemical
Experimental: In table 1, the logP values were determined in accordance with EEC Directive 79/831 Annex V.A8 by HPLC (High Performance Liquid Chromatography) on a reversed-phase column (C 18), using the method described below: Temperature: 40° C.; […]

Alternaria solani = assay: In vivo preventive test on Alternaria solani (tomato); settings: 500 ppm of active ingredient, evaluated 7 days after inoculation
Text: One day after this treatment, the plants are inoculated with an aqueous spore suspension of Alternaria solani.

Pyrenophora teres = assay: In vivo preventive test on Pyrenophora teres (barley); settings: 500 ppm of active ingredient, evaluated 7-9 days after inoculation
Text: One day after this treatment, the plants are inoculated with an aqueous spore suspension of Pyrenophora teres.

aflatoxines production = assay: microbe, parasite or virus in culture; format: cell-based, Aspergillus parasiticus; settings: 50 μM
Fusarium graminearum = assay: microbe, parasite or virus in culture; format: cell-based; settings: 50 μM

Compound	Efficacy (Sphaerotheca fuliginea)	logP [1]	Efficacy (Alternaria solani)	Efficacy (Pyrenophora teres)	% Inhibition of Aflatoxin at 50 μM (aflatoxines production)	% Inhibition of fungal growth at 50 μM (Fusarium graminearum)
Cn1nc(C(F)F)c(C(=O)N(C2CC2)C2CCCCC2c2ccc(Cl)cc2Cl)c1F (stereo not drawn) [Example 217]	99%	5.05	–	–	–	–
COC(CNC(=S)c1c(C(F)F)nn(C)c1F)c1cc(Cl)cc(Cl)c1 (stereo not drawn) [Example 110]	75%	4.19	80%	100%	–	–
CC(Cc1ccc(Oc2ccccc2)cc1)NC(=S)c1c(C(F)F)nn(C)c1F (stereo not drawn) [Example 156]	93%	4.29	89%	100%	–	–
CC(Cc1ccccc1F)N(C(=S)c1c(C(F)F)nn(C)c1F)C1CC1 (stereo not drawn) [Example 21]	100%	4.01	95%	100%	–	–
CC(Cc1ccccc1F)N(C(=O)c1c(C(F)F)nn(C)c1Cl)C1CC1 (stereo not drawn) [Example 20]	–	3.52	95%	100%	86%	69%
CC(C)C(CNC(=O)c1c(C(F)F)nn(C)c1Cl)c1ccc(Cl)cc1 (stereo not drawn) [Example 59]	–	3.94	100%	100%	100%	83%
Cn1nc(C(F)F)c(C(=O)NC(C)(C)Cc2ccc(Oc3ccccc3)cc2)c1F [Example 150]	100%	4.19	95%	78%	–	–
CC(Cc1ccccc1Cl)NC(=S)c1c(C(F)F)nn(C)c1Cl (stereo not drawn) [Example 38]	85%	3.72	89%	100%	–	–
CN(CCc1ccccc1)C(=O)c1c(C(F)F)nn(C)c1F [Example 4]	–	2.43	100%	95%	100%	91%
CN(CCc1ccccc1C(F)(F)F)C(=O)c1c(C(F)F)nn(C)c1Cl [Example 124]	–	3.13	100%	95%	100%	87%
CC(CNC(=O)c1c(C(F)F)nn(C)c1Cl)c1c(F)cccc1F (stereo not drawn) [Example 29]	–	2.92	100%	100%	100%	82%
Cn1nc(C(F)F)c(C(=O)NCCc2ccccc2Cl)c1F [Example 32]	–	2.69	95%	100%	100%	99%
CC(CNC(=O)c1c(C(F)F)nn(C)c1Cl)c1cccc(Cl)c1 (stereo not drawn) [Example 52]	–	3.21	100%	100%	100%	83%
Cn1nc(C(F)F)c(C(=O)NCCc2ccccc2Cl)c1Cl [Example 34]	–	2.88	100%	100%	100%	84%
CN(CCc1ccccc1Cl)C(=O)c1c(C(F)F)nn(C)c1Cl [Example 36]	–	2.92	100%	95%	100%	94%
Cn1nc(C(F)F)c(C(=O)NCCc2c(F)c(F)nc(F)c2F)c1F [Example 208]	–	2.44	95%	100%	99%	100%

Compound	Efficacy (Sphaerotheca fuliginea)	logP [1]	Efficacy (Alternaria solani)	Efficacy (Pyrenophora teres)	% Inhibition of Aflatoxin at 50 μM (aflatoxines production)	% Inhibition of fungal growth at 50 μM (Fusarium graminearum)
Cn1nc(C(F)F)c(C(=O)NC[Si](C)(C)c2cccc(Cl)c2)c1F [Example 237]	–	3.55	100%	100%	100%	100%
CCN(CCc1ccc(Cl)cc1)C(=O)c1c(C(F)F)nn(C)c1F [Example 56]	–	3.19	100%	100%	100%	93%
Cn1nc(C(F)F)c(C(=O)NCCc2cc(Cl)ccc2Cl)c1F [Example 90]	–	3.11	95%	100%	100%	100%
Cn1nc(C(F)F)c(C(=O)NC[Si](C)(C)c2ccccc2)c1F [Example 228]	–	3.13	100%	100%	100%	93%
Cn1nc(C(F)F)c(C(=O)NCCc2cccc(Cl)c2)c1F [Example 47]	–	2.75	100%	100%	100%	100%
Cn1nc(C(F)F)c(C(=O)NCCc2ccccc2C(F)(F)F)c1F [Example 121]	–	2.92	95%	100%	100%	100%
CC(CNC(=O)c1c(C(F)F)nn(C)c1F)c1cc(Cl)ccc1Cl (stereo not drawn) [Example 97]	–	3.35	95%	100%	100%	100%
Cc1cccnc1CC(NC(=O)c1c(C(F)F)nn(C)c1F)C(F)(F)F (stereo not drawn) [Example 185]	–	1.52	95%	94%	100%	87%
Cn1nc(C(F)F)c(C(=O)NCC(c2cccs2)C(F)(F)F)c1F (stereo not drawn) [Example 161]	–	2.75	95%	100%	100%	85%
Cn1nc(C(F)F)c(C(=O)NC[Si](C)(C)c2cccc(Cl)c2)c1Cl [Example 236]	–	3.71	100%	100%	99%	84%
CC(C)C(CNC(=O)c1c(C(F)F)nn(C)c1F)c1ccc(Cl)cc1 (stereo not drawn) [Example 60]	–	3.78	100%	100%	100%	96%
Cn1nc(C(F)F)c(C(=O)NCC(C)(C)c2cc(Cl)ccc2Cl)c1F [Example 100]	–	3.68	95%	94%	99%	85%
Cn1nc(C(F)F)c(C(=O)NCCc2ncc(C(F)(F)F)cc2Cl)c1Cl [Example 191]	–	2.97	94%	100%	100%	100%
CC(CNC(=O)c1c(C(F)F)nn(C)c1F)c1cccc(C(F)(F)F)c1 (stereo not drawn) [Example 126]	–	3.23	90%	100%	100%	98%
CC(CNC(=O)c1c(C(F)F)nn(C)c1Cl)c1ccc(C(F)(F)F)cc1 (stereo not drawn) [Example 128]	–	3.39	100%	94%	100%	82%
